For assay [1], the system named is OA chondrocytes. The experiment in a line: Human 62-plex Luminex array of secretome after drug treatment. Format: cell-based. To be noted: for CCL2 secretion / CCL7 secretion: 48 hours vs DMSO/control, 50 μM JNK Inhibitor II, 25 μM BMS-345541, 50 μM SB 431542, 0.5 mM IBMX, combination compared to JNK inhibitor alone. Here is the method: Next, experiments were conducted to explore the functional effects of inhibiting these newly identified Inf-A cells in OA cartilage by capitalizing on their distinct signalling through JNK. Chondrocytes derived from 6 patients were cultured for 48-hours in the presence of JNK II inhibitor and the secretome was analyzed via 62 antibody human Luminex panels. Across all six patients, a variety of cytokines were altered, many trending toward significance. […] CCL2 and 7 are well-established chemoattractants for monocytes and are known to be altered during OA progression (see for example Ref 28). Genetic deletions of CCL2 and its receptor CCR2 prevent the development of surgical OA, further underscoring the importance of CCL2 as a key modulator in pathology (see for example Ref. 28). […] As a complementary approach, SMAD1/5, the other exclusive signaling pathway of the Inf-A cells was inhibited using an ALK inhibitor. ALK receptors are the most common upstream target of SMAD1/5 signaling in OA (See for example Ref. 31).
(§1) OA cells were seeded at high density in 12-well plates and treated with control (DMSO) or drug next day for 48 hours. Drug doses were determined based on prior literature and validation-: 0.5 mM 3-Isobutyl-1-methylxanthine (IBMX, Sigma 15879) (See for example Ref. 33), 50 μM JNK Inhibitor II (Calbiochem 420119), 25 μM NFK-B inhibitor BMS-345541 (Sigma B9935) (See for example Ref 30, 43), 50 μM Alk inhibitor, SB 431542 hydrate (Sigma S4317 (See for example Ref. 44, 45) and 25 uM Kartogenin (Sigma SML0370) (See for example Ref. 24-26) were used with appropriate dilution in DMSO.
Cell culture supernatants were collected and spun down at 10,000×g for 10 min at 4° C. to remove any cells or cell debris and then snap frozen in liquid nitrogen, before performing the assay. This assay was performed in the Human Immune Monitoring Center at Stanford University. Human 62-plex kits were purchased from eBiosciences/Affymetrix and used according to the manufacturer's recommendations with modifications as described below. Briefly, beads were added to a 96-well plate and washed in a Biotek ELx405 washer. Undiluted samples were added to the plate containing the mixed antibody-linked beads and incubated at room temperature for 1 hour followed by overnight incubation at 4° C. with shaking. Cold and room temperature incubation steps were performed on an orbital shaker at 500-600 rpm. Following the overnight incubation plates were washed in a Biotek ELx405 washer and then biotinylated detection antibody added for 75 minutes at room temperature with shaking. Plate was washed as above and streptavidin-PE was added. After incubation for 30 minutes at room temperature wash was performed as above and reading buffer was added to the wells. Each sample was measured in duplicate. Plates were read using a Luminex 200 instrument with a lower bound of 50 beads per sample per cytokine. Custom assay Control beads by Radix Biosolutions were added to all wells.

The subject of assay [2] is OA chondrocytes. The experiment in a line: RT-qPCR gene expression after drug treatment. It is filed as cell-based, human. To be noted: 48 hours; for MMP13 expression: OA patients n=3. Here is the method:
Cells for RNA extraction were collected in RNA lysis buffer (Zymo Research) and processed according to the manufacturer's specifications for the Quick-RNA MicroPrep Kit (Zymo Research, R1051), including the optional DNAse1 digestion. RNA quality and quantity was measured using the Nanodrop 1000 Spectrophotometer. All samples had A260/280 scores between 1.6-1.8.
[…] of RNA from each sample was reversed transcribed into cDNA using the High Capacity cDNA Reverse Transcription Kit (Applied Biosystems, 4368813). Quantitative PCR was performed using TaqMan gene-specific expression assays, FAM-labeled, for metalloproteinase 3, 9, a 13 (Hs00233962_m1, Hs00957562_m1, Hs00233992_m1), with a universal mastermix (Applied Biosystems, 4369016). Gene expression levels were normalized with FAM-labeled Actin-beta (Hs01060665_g1).
For Tfam, CD24 and PGC1a, we utilized the SybrGreen mastermix (Applied Biosystems, A25742) according to manufacturer's specifications. Primer sequences: Tfam_F: 5′-GCTCAGAACCCAGATGCA AAA-3′, Tfam_R 5′-AGGAAGTTCCCTCCAACGC-3′, PGCla_F: 5′-[…]-3′, PGC1a_R: 5′-[…]-3′, CD24_F: 5′-TACCCACGCAGATTTATT-3′, CD24_R: 5′-AGA GTGAGACCACGAAGA-3′, Actin_F 5′-CACCAACTGGGACGACAT-3′, Actin_R: 5′-ACAGCCTGGATAGCAACG-3′. qPCR reactions included a 2-minute incubation at 50° C. to inactivate previous amplicons with uracil-DNA glycosylase, followed by a 10-minute incubation at 95° C. to activate the Taq polymerase. The amplification cycle, consisting of 15 seconds at 95° C., and 1 minute at 60° C., was repeated 40 times. The relative expression levels were determined using the ΔCt method (CT gene of interest−CT internal control−Actin) and relative gene expression is calculated using 2−ΔCt method and plotted.
as §1
A general note: In qPCR the cycle at which signal appears reflects the starting amount.

Assay [3] has as its system post-traumatic osteoarthritis (PTOA). The experiment in a line: Mouse model of post-traumatic osteoarthritis (tibial loading), OARSI histological scoring. It is filed as in vivo, wildtype C57BL mice. To be noted: 50 uM, 8 weeks post-injury vs control; for OA progression: intra-articular, 2 injections every week starting 1 week after tibial loading. Here is the method: Using a mouse model of post-traumatic osteoarthritis (PTOA) wherein mechanical loading can lead to onset and progression of OA (Christiansen et al. 2012), Applicant tested if early intervention with small molecule modulators of the Inf A populations can modulate the onset or progression of OA in vivo. For these experiments, wildtype C57BL mice were injected with (a) control or (b) Inf-A inhibitor (JNK II inhibitor) OA initiation to test whether these putative modulations can be therapeutic in OA. The injections were given starting 1 week after tibial loading and at a frequency of 2 injections every week to ensure their efficacy. For histological assessment, the OARSI scoring criteria was utilized to grade the OA severity with the score of 0-6 grades ranging from intact cartilage to erosion and deformation of cartilage/bone. For the quantification of OA development in each control or injured joint, 6 sagittal sections (4 μm thickness) spaced 50 μm are typically cut and stained in order to cover the whole joint compartment. A maximum score for the overall section (both tibial plateau and femoral condyle) is obtained after assigning the most severe damage score for each section and averaging the scores; a summit score (sum of the calculated scores) is calculated as a measure of the prevalent damage over the whole joint.

The subject of assay [4] is OA chondrocytes. The experiment in a line: cyTOF profiling of CPC cluster abundance after kartogenin treatment. It is filed as cell-based, human. Particulars: 25 uM kartogenin vs DMSO, 48 hours.
Text: Experiments were undertaken to understand how the application of a pro-regenerative drug would affect this CPC landscape, specifically the pro-inflammatory CPCs four in Group C. Kartogenin (KGN) was originally identified in a screen to expand mesenchymal stem cells and has since been shown in multiple studies to be a pro-chondrogenic modulator of OA progression in animal models (See for example Ref. […]). One patient from Group C (OA15) and one patient from Group A (OA5) were utilized. One patient from Group A (OA5) and one patient from Group C (OA15) were treated with kartogenin or control (DMSO) for 48 hours, fixed, stained and profiled by cyTOF as previously described. […] The treatment additionally expanded low-inflammation clusters 7 and 11 in the Group A patient, where they already appeared overrepresented, while these clusters were not expanded in the Group C patient. Furthermore, kartogenin reduced pro-inflammtory clusters 9, 12 in both the patients, though to a greater degree in the Group C patient enriched in those subtypes (FIG. 3G). Overall, kartogenin appears to expand normal-like and low inflammation CPC clusters (2, 10, 7 and 11) while reducing the high inflammation CPC III clusters (12 and 16).
as §1
OA cells were cultured to confluence in 10 cm dishes. On the collection day, cells were stained with 25 μM Idu for 15 min at 37° C. in the cell incubator, then with 0.5 μM cisplatin for 5 min at RT. Cells were then lifted with 0.25% Trypsin-EDTA (Gibco) for 15 min at 37° C. Trypsin was quenched using media containing 10% FBS and cell were washed 3 times with PBS to remove any trace amounts of trypsin. Cells were fixed after straining through a […] strainer in 1.6% PFA for 10 min at RT. Cells were washed 4 times with cells staining media, counted and frozen in 1 million cell aliquots in a small amount of cell staining media at −80° C. To stain, cells were thawed on ice and barcoded using the Cell-ID 20-plex Pd Barcoding Kit (Fluidigm) according to the manufacturer's specifications. After barcoding, cells were labeled as previously described (See for example Ref 13). Briefly, all barcoded samples were combined into one FACs tube, and washed 3× with cell staining media and stained with the cell surface antibodies for 30 minutes at RT according to the concentrations in Table 2. Cells were then was 2× with cell staining media and permeabilized with 1 mL of cold methanol added dropwise with continuous gentle vortexing. Cells were incubated for 10 min on ice, with gentle vortexing every 2-3 minutes to avoid cell clumping, then washed in cell staining media and stained with the intracellular antibodies for 30 minutes at RT. After 2× washed with cell staining media, cells were resuspended in 1.6% PFA with Cell-ID Intercalator-Ir (Fluidigm) used at 1:2000. Cells were measured using the cyTOF 2 (Fluidigm) and injected using the supersampler. […]

Where [5] appears, read: 48 hours vs DMSO, 50 μM SB 431542, combination compared to JNK inhibition alone.

“Also recorded” adds a separate entry of the source.

For `NC(=O)c1ccc(-c2nc(-c3ccc4c(c3)OCO4)c(-c3ccccn3)[nH]2)cc1` [ALK inhibitor, SB 431542 hydrate], in the assay on OA chondrocytes [1], the CCL2 secretion result was “decrease” and the CCL7 secretion entry is listed as “decrease”. For the same molecule, in the assay with OA chondrocytes [1] (setting [5]), the CXCL1 secretion entry is recorded as “decrease” and the CXCL5 secretion entry is recorded as “decrease”.
For `CC(C)Cn1c(=O)n(C)c(=O)c2[nH]cnc21` [IBMX, 3-Isobutyl-1-methylxanthine], in the assay on OA chondrocytes [1], the CCL2 secretion entry is recorded as “modest downregulation” and the CCL7 secretion entry was “modest downregulation”. In addition, the “upregulation of CD24 expression” value in the assay with OA chondrocytes [2] (0.5 mM IBMX) was 2-4 fold. The MMP13 expression result in the assay with OA chondrocytes [2] is given as “no consistent effect; also recorded: No significant differences”. Also, in the assay on OA chondrocytes [2] (IBMX), the Pgc1a gene expression result is “increased” and the Tfam gene expression entry is “increased”.
In the case of `O=C1c2ccccc2-c2n[nH]c3cccc1c23` [JNK II inhibitor], in the assay with OA chondrocytes [1], the CCL2 secretion result is “significant decrease” and the CCL7 secretion result was “significant decrease”. For the same molecule, in the assay on OA chondrocytes [1] (listed as INK inhibitor), the CCL2 secretion result is reported as “overall reduction” and the CCL7 secretion entry is recorded as “overall reduction”. Further, in the assay on OA chondrocytes [2], the MMP gene expression entry is recorded as “remained unaffected” and the MMP13 expression result is “No significant differences”. In assay [3], the “max score (OARSI)” value was “reduced”, the “summit score (OARSI)” value is given as “reduced” and the OA progression entry is listed as “slowed”. Besides, the OA progression result in assay [3] (listed as JNKII inhibitor) is “slows down progression”.
As to `Cc1ccc2nc(NCCN)c3ncc(C)n3c2c1` [BMS-345541], in the assay with OA chondrocytes [1], the CCL2 secretion result is recorded as “did not affect” and the CCL7 secretion entry is listed as “did not affect”.
As for `O=C(O)c1ccccc1C(=O)Nc1ccc(-c2ccccc2)cc1` [Kartogenin], the “abundance of low-inflammation clusters 7 and 11” value with OA chondrocytes [4] (Group A patient (OA5)) was “expanded”; in the assay with OA chondrocytes [4] (Group C patient (OA15)) it was “not expanded”. Further, in the assay on OA chondrocytes [4] (both patients), the “abundance of pro-inflammatory clusters 9, 12” value is “reduced”. Further, the “abundance of cluster 2 (CPC I) and cluster 10 (CPC II)” value with OA chondrocytes [4] (both patients (OA5 Group A, OA15 Group C)) was “selectively expanded”. Moreover, in the assay on OA chondrocytes [4] (overall summary), the “abundance of high inflammation CPC III clusters (12 and 16)” value is on record as “reducing”.

(Values after patent publication US20220347182A1, “METHODS AND COMPOSITIONS FOR THE TREATMENT OF OSTEOARTHRITIS” (The Board of Trustees of the Leland Stanford Junior …, priority 2019, published 2022).)
